Test [1] concerns the target T1, Mitogen-activated protein kinase kinase kinase 13 (Homo sapiens, UniProt O43283).
T1 sequence (O43283 whole entry): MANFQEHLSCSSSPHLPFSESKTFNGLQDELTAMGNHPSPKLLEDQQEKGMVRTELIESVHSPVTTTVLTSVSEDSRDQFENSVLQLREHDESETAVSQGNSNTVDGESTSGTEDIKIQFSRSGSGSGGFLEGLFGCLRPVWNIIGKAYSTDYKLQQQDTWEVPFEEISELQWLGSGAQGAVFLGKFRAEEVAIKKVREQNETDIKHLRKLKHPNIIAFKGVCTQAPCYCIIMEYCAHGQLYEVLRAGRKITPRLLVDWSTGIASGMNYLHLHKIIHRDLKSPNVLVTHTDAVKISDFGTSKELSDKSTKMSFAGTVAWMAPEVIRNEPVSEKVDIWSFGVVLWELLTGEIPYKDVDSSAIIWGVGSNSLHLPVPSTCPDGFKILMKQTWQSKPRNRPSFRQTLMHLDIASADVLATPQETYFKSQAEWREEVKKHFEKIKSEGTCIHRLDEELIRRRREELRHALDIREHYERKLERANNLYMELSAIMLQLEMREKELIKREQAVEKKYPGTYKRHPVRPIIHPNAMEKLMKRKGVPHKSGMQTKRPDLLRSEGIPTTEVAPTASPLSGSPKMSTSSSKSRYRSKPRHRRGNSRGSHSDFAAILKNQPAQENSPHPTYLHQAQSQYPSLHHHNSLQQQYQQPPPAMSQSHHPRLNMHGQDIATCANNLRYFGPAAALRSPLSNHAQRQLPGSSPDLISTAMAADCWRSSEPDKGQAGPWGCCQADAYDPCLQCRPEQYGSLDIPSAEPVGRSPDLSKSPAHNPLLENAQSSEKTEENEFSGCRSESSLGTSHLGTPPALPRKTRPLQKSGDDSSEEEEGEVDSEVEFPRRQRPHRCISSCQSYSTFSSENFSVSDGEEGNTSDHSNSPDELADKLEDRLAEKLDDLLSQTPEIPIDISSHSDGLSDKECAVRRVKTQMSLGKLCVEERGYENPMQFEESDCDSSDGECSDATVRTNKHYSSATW
Briefly: LZK Biochemical Assay. The procedure: All indicated concentrations final concentrations. […] Detection buffer: 25 mM Tris/HCl pH 7.5, 100 mM EDTA, 100 mM NaCl, 200 mM KF, 0.01% Tween 20, 1:500 Smart Block.

Test [2] addresses T2, Mitogen-activated protein kinase kinase kinase 12 (Homo sapiens, UniProt Q12852).
T2 sequence (Q12852 whole entry): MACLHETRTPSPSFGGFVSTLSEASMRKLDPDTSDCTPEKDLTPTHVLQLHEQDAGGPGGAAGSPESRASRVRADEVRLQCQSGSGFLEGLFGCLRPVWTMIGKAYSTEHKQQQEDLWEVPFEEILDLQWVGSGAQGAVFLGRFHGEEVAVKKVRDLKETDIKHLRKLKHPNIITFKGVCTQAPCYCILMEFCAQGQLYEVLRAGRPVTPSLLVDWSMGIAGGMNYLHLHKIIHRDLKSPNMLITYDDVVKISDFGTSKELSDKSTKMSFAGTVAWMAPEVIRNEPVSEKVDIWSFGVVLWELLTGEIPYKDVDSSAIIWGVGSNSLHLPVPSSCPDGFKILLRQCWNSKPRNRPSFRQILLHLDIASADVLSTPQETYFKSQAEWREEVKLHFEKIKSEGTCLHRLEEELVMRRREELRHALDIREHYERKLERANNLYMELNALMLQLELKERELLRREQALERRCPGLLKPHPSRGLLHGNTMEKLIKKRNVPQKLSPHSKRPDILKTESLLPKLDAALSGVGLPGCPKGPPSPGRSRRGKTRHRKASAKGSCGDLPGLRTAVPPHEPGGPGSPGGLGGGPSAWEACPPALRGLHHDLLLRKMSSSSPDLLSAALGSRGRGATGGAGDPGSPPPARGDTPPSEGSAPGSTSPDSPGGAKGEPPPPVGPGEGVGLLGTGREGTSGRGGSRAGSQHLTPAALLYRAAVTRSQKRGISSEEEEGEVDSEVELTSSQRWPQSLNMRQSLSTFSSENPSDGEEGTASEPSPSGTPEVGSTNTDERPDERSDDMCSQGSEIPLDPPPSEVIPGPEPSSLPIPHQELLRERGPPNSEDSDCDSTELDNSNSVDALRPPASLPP
Briefly: DLK Biochemical Assay.

Experimental findings from BindingDB's records for patent US20230382904 (The Johns Hopkins University, 2023) are described below.

Molecules are shown by their SMILES.

`COC[C@H](NC(=O)c1cc(-c2cc(C(=O)NC(C)C)n3nc(N)nc3c2)cs1)c1ccccc1` [US20230382904, Compound 155]: the IC50 in test [1] turned out to be 41 nM; in test [2] it was 4.3 nM.
